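Where inhibition never reached the appropriate level, the endpoint shown equals the highest concentration tested. Otherwise, values were interpolated linearly from a five-concentration, 48-hour dose response in 96-well plates. TGI: total growth inhibition.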
Assays:
Assay in all cases: NCI anticancer screen, dose series, 48 h
[1] = system: 786-0 renal
[2] = system: A498 renal
[3] = system: BT-549 breast
[4] = system: HCT-116 colon
[5] = system: HL-60(TB) leukemia
[6] = system: HOP-92 NSCLC
[7] = system: HT29 colon
[8] = system: MDA-N
[9] = system: NCI-H23 lung
[10] = system: NCI-H522 lung
[11] = system: OVCAR-3 ovarian
[12] = system: OVCAR-4 ovarian
[13] = system: RPMI-8226 leukemia
[14] = system: SF-295 CNS
[15] = system: SK-MEL-2 melanoma
[16] = system: SK-MEL-5 melanoma
[17] = system: SN12C renal
[18] = system: U251 CNS
[19] = system: UACC-257 melanoma
[20] = system: NCI-H460 lung

Structure (SMILES)	TGI [1] [µM]	TGI [2] [µM]	TGI [3] [µM]	TGI [4] [µM]	TGI [5] [µM]	TGI [6] [µM]	TGI [7] [µM]	TGI [8] [µM]	TGI [9] [µM]	TGI [10] [µM]	TGI [11] [µM]	TGI [12] [µM]	TGI [13] [µM]	TGI [14] [µM]	TGI [15] [µM]	TGI [16] [µM]	TGI [17] [µM]	TGI [18] [µM]	TGI [19] [µM]	TGI [20] [µM]
COc1cccc(C23CCN(C)C(CC(O)C2)C3)c1OC (centres undefined)	> 100	> 100	> 100	> 100	> 100	> 100	> 100	> 100	> 100	> 100	> 100	> 100	> 100	> 100	> 100	> 100	> 100	> 100	> 100	–
CC(=O)Nc1cccc(N2C(=O)/C(=C\c3cccc(Oc4ccccc4)c3)SC2c2ccccc2)c1 (centres undefined)	> 100	> 100	> 100	> 100	> 100	> 100	> 100	> 100	> 100	> 100	> 100	> 100	89	> 100	> 100	> 100	> 100	> 100	> 100	> 100
CC(Oc1ccccc1Cl)C(=O)NN1C(=O)CC(=O)N(c2ccc(Cl)cc2)C1=S (centres undefined)	> 100	72.9	> 100	> 100	8.68	63.2	> 100	> 100	> 100	> 100	> 100	> 100	> 100	> 100	98.2	> 100	> 100	> 100	> 100	> 100
O=C1NC(N/N=C\c2ccccc2)=N/C1=C/c1ccccc1	> 100	> 100	71.2	> 100	> 100	66.6	> 100	> 100	58.7	87	94.9	55.9	> 100	> 100	> 100	> 100	> 100	> 100	> 100	> 100
COc1cc(OC)c2c(=O)c3cccc(C)c3n(C)c2c1	> 100	> 100	> 100	> 100	> 100	> 100	> 100	> 100	> 100	> 100	> 100	> 100	58.9	> 100	> 100	60.6	> 100	> 100	> 100	> 100
CC(C)[Si]1(C(C)C)OCC2OC(n3ccc(=O)[nH]c3=O)C([Se]c3ccccc3)C2O[Si](C(C)C)(C(C)C)O1 (centres undefined)	7.77	18.9	23.7	7.16	> 25.4	13	3.99	12.7	13	4.36	9.73	9.67	10.9	18	20.1	9.59	5.57	4.87	13.9	3.89
O=[N+]([O-])/C(Cl)=C(/C(Cl)=C(Cl)Cl)N1CCOCC1	10	7.79	8.86	7.51	5.23	4.88	14.2	6.77	5.68	4.73	4.86	16.7	6.58	25.8	11.6	3.48	20	27	9.3	18.4
CC(C)(C)OC(=O)CCCCCNC(=O)CCCCCNC(=O)CCC(CN(CC(=O)OCc1ccccc1)CC(=O)OCc1ccccc1)N(CC(=O)OCc1ccccc1)CC(=O)OCc1ccccc1 (centres undefined)	> 100	> 100	> 100	> 100	> 100	> 100	> 100	> 100	> 100	> 100	> 100	> 100	> 100	> 100	> 100	> 100	> 100	> 100	> 100	> 100
CCCCCCCCCCCCCCCCNC(=O)/C(=C\c1ccc(Cl)c(Cl)c1)NC(=O)c1ccccc1	47.4	35.5	> 100	> 100	22	34.7	> 100	> 100	52.6	> 100	> 100	84.4	58.5	> 100	> 100	> 100	81.5	> 100	> 100	> 100
COC(=O)C(=O)Nc1cc2c3c(c1)Oc1cccc4c1C3(C)c1c(cccc1O2)O4	> 79.7	> 100	> 100	> 100	14.2	> 100	> 40.6	> 100	> 100	> 100	> 100	> 100	> 100	> 100	> 100	> 100	> 100	> 100	> 100	> 100
O=c1[nH][nH]c(=O)c2c1ccc1oc3ccccc3c12	> 100	> 100	> 100	> 100	> 100	> 100	> 100	> 100	> 100	> 100	> 100	> 100	> 100	> 100	> 100	> 100	> 100	> 100	> 100	> 100
CC(C)(C)OC(=O)N1CCCC1C(=O)NC(c1ccccc1)c1ccccc1 (centres undefined)	> 100	> 100	> 100	> 100	> 100	> 100	> 100	> 100	> 100	> 100	> 100	> 100	> 100	> 100	> 100	> 100	> 100	> 100	> 100	> 100
O=C1Cc2cn[nH]c2-c2ccccc2N1	> 100	> 100	61.5	> 83.5	> 78.3	> 30.7	> 100	> 100	> 100	65.8	37.5	> 75.1	66.1	> 100	> 83.8	> 59.7	> 63.9	> 61.6	> 60.5	> 69.8
Cc1[nH]c(-c2ccccc2)c2nc(N(C)C)oc(=O)c12	> 100	> 100	> 100	> 100	> 100	> 100	> 100	> 100	> 100	> 100	–	> 100	> 100	> 100	> 100	> 100	> 100	> 100	> 100	> 100
COc1ccccc1-c1c(C#N)c(N)[nH]c(=S)c1C#N	> 100	> 100	> 100	> 100	> 100	> 100	> 100	67.1	> 100	> 100	> 100	> 100	> 100	> 100	> 100	> 100	91.8	> 100	> 100	> 100
CC(C)CC(N)C(=O)NC(C(=O)NC(CCCNC(=N)N)C(=O)NC(CS)C(=O)NC1CSCC(C(=O)NC(Cc2ccccc2)C(=O)NC(C(=O)NC(CCCNC(=N)N)C(=O)O)C(C)C)NC(=O)C2CCCN2C(=O)C(CCCCN)NC(=O)C2CCCN2C(=O)C2CCCN2C(=O)C(Cc2ccc(O)cc2)NC(=O)C(CO)NC(=O)C(CCCCN)NC(=O)C(C(C)O)NC(=O)C(Cc2c[nH]c3ccccc23)NC1=O)C(C)C (centres undefined)	> 25	> 25	> 25	> 25	> 25	> 25	> 25	> 25	> 25	> 25	> 25	> 25	> 25	> 25	> 25	> 25	> 25	> 25	> 25	–
O=C1c2c(Br)sc(Br)c2[C@@H](O)[C@H]1O	28.5	> 100	35.6	32.4	28.6	35.3	40.4	31.8	21	3.54	6.25	29.5	47.6	35.1	32.6	32.4	32.8	20.8	29.3	31.8
COc1cc2cc(C(=O)N3CC(CCl)c4ccc([N+](C)(C)Cc5ccccc5[N+](=O)[O-])cc43)[nH]c2c(OC)c1OC (centres undefined)	> 36.3	1.37	6.29	> 100	> 100	> 29.8	> 21.8	6.49	4.9	0.677	> 24.6	12.9	5.3	36.5	4.44	3.3	26.4	26.4	6.75	–
Cc1ccc2nc(NS(=O)(=O)c3cc(C)c(Cl)cc3S)[nH]c2c1	> 100	> 100	> 100	> 100	72.7	> 100	> 100	> 100	> 100	> 100	> 100	> 100	> 100	> 100	> 100	> 100	> 100	> 100	> 100	38.6
O=C1CSC(c2ccccc2O)N1c1ccc(-n2c(-c3ccccc3)nc3ccccc3c2=O)cc1 (centres undefined)	> 100	> 100	61.5	35.9	> 100	76.5	> 100	> 100	> 100	66	41.5	> 100	> 100	50.5	59.1	35.9	> 100	> 100	82.2	50.8
Cc1c(-c2ccccc2)[nH]c2cn[nH]c(=O)c12	> 100	> 100	> 100	> 100	> 100	> 100	> 100	> 100	> 100	> 100	> 100	–	> 100	> 100	> 100	> 100	–	> 100	> 100	> 100
CN=c1sc2nc(C#N)c(C#N)nc2n1C	> 60	35.2	62.8	36	> 40.4	37.7	26	> 58.3	37.9	31.5	72.1	49.1	> 84.9	45.5	40.7	35.4	> 100	44.9	> 100	35.7
O=C(Cc1nc2ccccc2[nH]c1=O)c1c[nH]c2ccccc12	29.3	51.9	29.6	56.2	> 100	> 100	27.3	> 100	> 100	50	68	72.2	> 100	35	28.9	26.9	54.3	33	> 100	32.4

Source: PubChem BioAssay (NCI)
